Assay results: patent US8062995B2, “Dioxazine-substituted arylamides” (Bayer CropScience AG, priority 2005, dated 2011)

Assays:
[1] = tested on: green peach aphid (Myzus persicae); experiment: Myzus test (MYZUPE spray treatment); format: in vivo; settings: for Kill rate after 5d in %: 100 g/ha, spray treatment
Method: Myzus Test (MYZUPE Spray Treatment) Solvents: 78 parts by weight of acetone • • 1.5 parts by weight of dimethylformamide Emulsifier: 0.5 part by weight of alkylaryl polyglycol ether To produce a suitable preparation of active compound, 1 part by weight of active compound is mixed with the stated amounts of solvents and emulsifier and the concentrate is diluted with emulsifier-containing water to the desired concentration. Discs of Chinese cabbage (Brassica pekinensis), which are infested by all stages of the green peach aphid (Myzus persicae) are sprayed with an active compound preparation of the desired concentration. After the desired period of time, the activity in % is determined. 100% means that all aphids have been killed; 0% means that none of the aphids have been killed.

[2] = logP determination by HPLC (reversed-phase C18), EEC Directive 79/831 Annex V.A8; format: physicochemical; settings: HPLC reversed-phase C18, 43° C., acidic range pH 2.7
Method: The logP values given in the tables and Preparation Examples above are determined in accordance with EEC Directive 79/831 Annex V.A8 by HPLC (High Performance Liquid Chromatography) on a reversed-phase column (C 18). Temperature: 43° C. The determination by LC-MS in the acidic range is carried out at pH 2.7 using 0.1% aqueous formic acid and acetonitrile (contains 0.1% formic acid) as mobile phases; linear gradient from 10% acetonitrile to 95% acetonitrile. Calibration is carried out using unbranched alkan-2-ones (having 3 to 16 carbon atoms) with known logP values (determination of the logP values by the retention times using linear interpolation between two successive alkanones).

[3] = tested on: caterpillars of the army worm (Spodoptera frugiperda); experiment: Spodoptera frugiperda test (SPODFR spray treatment); format: in vivo; settings: for Kill rate after 7d in %: 100 g/ha, spray treatment
Method: Spodoptera frugiperda Test (SPODFR Spray Treatment) Solvents: 78 parts by weight of acetone • • 1.5 parts by weight of dimethylformamide Emulsifier: 0.5 part by weight of alkylaryl polyglycol ether To produce a suitable preparation of active compound, 1 part by weight of active compound is mixed with the stated amounts of solvents and emulsifier and the concentrate is diluted with emulsifier-containing water to the desired concentration. Discs of maize leaves (Zea mays) are sprayed with an active compound preparation of the desired concentration and after drying populated with caterpillars of the army worm (Spodoptera frugiperda). After the desired period of time, the activity in % is determined. 100% means that all of the caterpillars have been killed; 0% means that none of the caterpillars have been killed.

[4] = tested on: larvae of the mustard beetle (Phaedon cochleariae); experiment: Phaedon test (sprayed Chinese cabbage discs); format: in vivo; settings: for Kill rate after 7d in %: 100 g/ha
Method: Phaedon Test Solvents: 78 parts by weight of acetone • • 1.5 parts by weight of dimethylformamide Emulsifier: 0.5 part by weight of alkylaryl polyglycol ether To produce a suitable preparation of active compound, 1 part by weight of active compound is mixed with the stated amounts of solvents and emulsifier and the concentrate is diluted with emulsifier-containing water to the desired concentration. Discs of Chinese cabbage (Brassica pekinensis) are sprayed with an active compound preparation of the desired concentration and, after drying, populated with larvae of the mustard beetle (Phaedon cochleariae). After the desired period of time, the activity in % is determined. 100% means that all beetle larvae have been killed; 0% means that none of the beetle larvae have been killed.

[5] = tested on: Spodoptera frugiperda larvae; experiment: Spodoptera frugiperda test (treatment by watering); format: in vivo; settings: for Kill rate after 14d in %: 20 ppm, treatment by watering
Method: Spodoptera frugiperda Test Solvent: 7 parts by weight of dimethylformamide Emulsifier: 2 parts by weight of alkylaryl polyglycol ether To produce a suitable preparation of active compound, 1 part by weight of active compound is mixed with the stated amounts of solvent and emulsifier and the concentrate is diluted with water to the desired concentration. Maize plants (Zea mays) are watered with an active compound preparation of the desired concentration and infected with Spodoptera frugiperda larvae. After the desired period of time, the kill in % is determined. 100% means that all larvae have been killed; 0% means that none of the larvae have been killed.

[6] = tested on: caterpillars of the diamondback moth (Plutella xylostella); experiment: Plutella test (leaf dip); format: in vivo
Method: (§1) Plutella Test Solvent: 7 parts by weight of dimethylformamide Emulsifier: 2 parts by weight of alkylaryl polyglycol ether To produce a suitable preparation of active compound, 1 part by weight of active compound is mixed with the stated amounts of solvent and emulsifier and the concentrate is diluted with emulsifier-containing water to the desired concentration. Cabbages leaves (Brassica oleracea) are treated by being dipped into the active compound preparation of the desired concentration and populated with caterpillars of the diamondback moth (Plutella xylostella) while the leaves are still moist. After the desired period of time, the kill in % is determined. 100% means that all caterpillars have been killed; 0% means that none of the caterpillars have been killed.

[7] = tested on: caterpillars of the army worm (Spodoptera exigua); experiment: Spodoptera exigua test (leaf dip); format: in vivo
Method: as §1, with “Spodoptera exigua” for “Plutella”, “Cabbage” for “Cabbages”, “army worm (Spodoptera exigua)” for “diamondback moth (Plutella xylostella)”

[8] = tested on: Spodoptera exigua, resistant strain; experiment: Spodoptera exigua test; resistant strain; format: in vivo; settings: for Kill rate after 7d in %: 20 ppm, resistant strain
Method: Spodoptera exigua Test; Resistant Strain
Solvent: 7 parts by weight of dimethylformamide
Emulsifier: 2 parts by weight of alkylaryl polyglycol ether
To produce a suitable preparation of active compound, 1 part by weight of active compound is mixed with the stated amounts of solvent and emulsifier and the concentrate is diluted with emulsifier-containing water to the desired concentration.
Cabbage leaves (Brassica oleracea) are treated by being dipped into the active compound preparation of the desired concentration and populated with caterpillars of the army worm (Spodoptera exigua, resistant strain) while the leaves are still moist.
After the desired period of time, the kill in % is determined. 100% means that all caterpillars have been killed; 0% means that none of the caterpillars have been killed.

[9] = tested on: caterpillars of the cotton bollworm (Heliothis armigera); experiment: Heliothis armigera test (leaf dip); format: in vivo
Method: as §1, with “Heliothis armigera” for “Plutella”, “Soya bean” for “Cabbages”, “(Glycine max.)” for “(Brassica oleracea)”, “cotton bollworm (Heliothis armigera)” for “diamondback moth (Plutella xylostella)”

Structure (SMILES) | logP [2] | activity in the Spodoptera frugiperda test, spray treatment (in words) [3] | Kill rate after 7d in % [3] | activity in the Phaedon test (in words) [4] | Kill rate after 7d in % [4] | other results
O=C(Nc1c(Cl)cc(Cl)cc1C1=NOCCO1)c1cc(Cl)nn1-c1ncccc1Cl [Example I-1-2] | 3.07 | good activity | 100% | good activity | 100% | activity in the Myzus test, spray treatment (in words) [1]: good activity; Kill rate after 5d in % [1]: 80%
Cc1cccc(C2=NOCCO2)c1NC(=O)c1cc(C(F)(F)F)nn1-c1ncccc1Cl [Example I-1-3] | 3.00 | good activity | 100% |  |  | activity in the Spodoptera frugiperda test, watering (in words) [5]: good activity; Kill rate after 14d in % [5]: 95%
Cc1cccc(C2=NOCCO2)c1NC(=O)c1cc(Br)nn1-c1ncccc1Cl [Example I-1-4] | 2.59 | good activity | 100% |  |  | 
Cc1cc(Cl)cc(C2=NOCCO2)c1NC(=O)c1cc(C(F)(F)F)nn1-c1ncccc1Cl [Example I-1-6] | 3.50 | good activity | 100% | good activity | 100% | activity in the Plutella test (in words) [6]: good activity; Kill rate after 7d in % ([6]; 20 ppm, 7 d): 100%; activity in the Spodoptera frugiperda test, watering (in words) [5]: good activity; Kill rate after 14d in % [5]: 98%; activity in the Spodoptera exigua test (in words) [7]: good activity; Kill rate after 7d in % ([7]; 100 ppm): 100%; activity in the Spodoptera exigua test, resistant strain (in words) [8]: good activity; Kill rate after 7d in % [8]: 100%
Cc1cc(Br)cc(C2=NOCCO2)c1NC(=O)c1cc(Cl)nn1-c1ncccc1Cl [Example I-1-10] | 3.18 | good activity | 100% | good activity | 100% | activity in the Spodoptera frugiperda test, watering (in words) [5]: good activity; Kill rate after 14d in % [5]: 90%; activity in the Spodoptera exigua test (in words) [7]: good activity; Kill rate after 7d in % ([7]; 20 ppm): 100%; activity in the Heliothis armigera test (in words) [9]: good activity; Kill rate after 7d in % ([9]; 20 ppm, 7 d): 100%; activity in the Spodoptera exigua test, resistant strain (in words) [8]: good activity; Kill rate after 7d in % [8]: 100%
Cc1cc(Br)cc(C2=NOCCO2)c1NC(=O)c1cc(Br)nn1-c1ncccc1Cl [Example I-1-12] | 3.24 | good activity | 100% | good activity | 100% | 
O=C(Nc1c(Cl)cc(Cl)cc1C1=NOCCO1)c1cc(Br)nn1-c1c(Cl)cccc1Cl [Example I-1-13] | 3.98 |  |  | good activity | 100% | 
Cc1cc(Cl)cc(C2=NOCCO2)c1NC(=O)c1cc(C(F)(F)F)nn1-c1ncccn1 [Example I-1-14] | 2.79 |  |  |  |  | 
O=C(Nc1c(Cl)cc(Cl)cc1C1=NOCCO1)c1cc(C(F)(F)F)nn1-c1ncccn1 [Example I-1-15] | 2.80 |  |  |  |  | 
O=C(Nc1c(Cl)cc(Cl)cc1C1=NOCCO1)c1cc(Br)cn1-c1ncccc1Cl [Example I-1-21] | 3.48 | good activity | 100% | good activity | 100% | 
Cc1cc(Cl)cc(C2=NOCCO2)c1NC(=O)c1cc(Br)cn1-c1ncccc1Cl [Example I-1-25] | 3.50 | good activity | 83% | good activity | 83% | 
Cc1cc(I)cc(C2=NOCCN2)c1NC(=O)c1cc(Cl)nn1-c1ncccc1Cl [Example I-1-26] | 2.44 | good activity | 100% | good activity | 100% | activity in the Myzus test, spray treatment (in words) [1]: good activity; Kill rate after 5d in % [1]: 100%
O=C(Nc1c(Cl)cccc1C1=NOCCN1)c1cc(Br)nn1-c1ncccc1Cl [Example I-1-27] | 1.89 |  |  |  |  | 
Cc1cccc(C2=NOCCN2)c1NC(=O)c1cc(Br)cn1-c1ncccc1Cl [Example I-1-28] | 1.83 | good activity | 100% | good activity | 100% | 
Cc1cc(Br)cc(C2=NOCCN2)c1NC(=O)c1cc(C(F)(F)F)nn1-c1ncccc1Cl [Example I-1-29] | 2.80 | good activity | 100% | good activity | 100% | activity in the Myzus test, spray treatment (in words) [1]: good activity; Kill rate after 5d in % [1]: 100%
Cc1cc(Br)cc(C2=NOCCN2)c1NC(=O)c1cc(Cl)nn1-c1ncccc1Cl [Example I-1-30] | 2.35 | good activity | 100% | good activity | 100% | activity in the Myzus test, spray treatment (in words) [1]: good activity; Kill rate after 5d in % [1]: 100%
